Test results: the NIST ThermoML archive (doi:10.1016/j.tca.2013.10.024)
“And” between values parts separate entries of the source, which are not always exact repeats. Equal values may be shown once.

Details: Crystal, Calculated from knudsen effusion weight loss

O=S(=O)([O-])[O-].[K+].[K+] [potassium sulfate]
Details	vapor or sublimation pressure
1193 K	2.255e-05 kPa
1201 K	4.069e-05 kPa
1202 K	3.268e-05 kPa
1207 K	5.831e-05 kPa
1212 K	4.467e-05 kPa
1214 K	4.592e-05 kPa and 5.841e-05 kPa
1218 K	4.274e-05 kPa
1221 K	7.584e-05 kPa
1223 K	9.497e-05 kPa
1224 K	6.12e-05 kPa
1225 K	5.984e-05 kPa
1226 K	7.236e-05 kPa
1227 K	0.0001197 kPa
1228 K	0.0001335 kPa and 9.75e-05 kPa
1233 K	6.173e-05 kPa
1235 K	6.966e-05 kPa and 0.0001125 kPa
1238 K	0.000154 kPa and 7.448e-05 kPa
1239 K	0.000181 kPa and 0.0001288 kPa
1240 K	9.576e-05 kPa
1241 K	0.0001668 kPa
1243 K	0.0002943 kPa and 0.0001001 kPa
1244 K	0.000186 kPa [middle of 4 runs]
1245 K	0.0001671 kPa
1246 K	0.0001915 kPa and 0.0001729 kPa
1247 K	0.0002093 kPa
1248 K	0.0002174 kPa and 0.0001453 kPa
1253 K	0.0001091 kPa
1254 K	0.0001949 kPa
1255 K	0.0002829 kPa and 0.0001188 kPa
1258 K	0.000281 kPa and 0.0003264 kPa
1259 K	0.0001516 kPa and 0.0002187 kPa and 0.0003679 kPa
1260 K	0.0001623 kPa and 0.0004471 kPa
1263 K	0.0002656 kPa
1264 K	0.0005652 kPa and 0.0002789 kPa
1265 K	0.0003443 kPa and 0.0002937 kPa
1267 K	0.0005201 kPa and 0.0003602 kPa
1268 K	0.0003503 kPa [middle of 4 runs]
1269 K	0.0001536 kPa
1271 K	0.0003904 kPa
1272 K	0.0005138 kPa and 0.0005765 kPa and 0.0003016 kPa
1273 K	0.0001617 kPa and 0.0001919 kPa
1275 K	0.0006554 kPa
1276 K	0.0003422 kPa
1277 K	0.000463 kPa
1280 K	0.0004126 kPa
1281 K	0.0005285 kPa and 0.0002784 kPa
1282 K	0.000452 kPa
1283 K	0.0007481 kPa [middle of 5 runs]
1286 K	0.0004333 kPa
1288 K	0.0005671 kPa and 0.0005922 kPa and 0.0005203 kPa
1290 K	0.0009328 kPa and 0.0004622 kPa
1292 K	0.000853 kPa and 0.0003739 kPa and 0.0005323 kPa
1296 K	0.0006593 kPa and 0.0005992 kPa
1297 K	0.001092 kPa
1300 K	0.0007532 kPa [middle of 4 runs]
1301 K	0.0007786 kPa
1302 K	0.0004586 kPa and 0.0006547 kPa
1303 K	0.0003659 kPa
1304 K	0.0006238 kPa
1305 K	0.0008515 kPa [middle of 4 runs]
1306 K	0.001457 kPa
1308 K	0.0009057 kPa
1309 K	0.0005351 kPa and 0.000795 kPa
1311 K	0.001559 kPa
1313 K	0.001473 kPa
1314 K	0.001 kPa and 0.0008818 kPa
1315 K	0.0006036 kPa
1317 K	0.000929 kPa
1318 K	0.000916 kPa and 0.0006586 kPa
1320 K	0.001024 kPa
1325 K	0.001188 kPa and 0.001093 kPa
1326 K	0.0008296 kPa
1330 K	0.0008553 kPa and 0.001278 kPa
1332 K	0.001415 kPa
1334 K	0.00134 kPa
1335 K	0.001459 kPa
1336 K	0.001412 kPa
1341 K	0.001475 kPa
1343 K	0.001564 kPa
1347 K	0.001721 kPa
1349 K	0.001744 kPa
1352 K	0.001919 kPa
1355 K	0.001941 kPa
1359 K	0.002022 kPa
